In brackets after ≈: the same amount, converted by molar mass.

One may read the fraction unbound as free concentration divided by total concentration. Broadly, the solubility is how much of the substance goes into solution per volume. Lower therefore signals little dissolved substance. The IC50 is the concentration that inhibits the measured activity by half. As a reminder, the GI50 is the concentration that inhibits growth by half. Read a high GI50 as less potent growth inhibition.

The nature of data set [1]: Intrinsic clearance in rat hepatocyte assessed per 10^6 cells. The data set is classed as ADME, cell-based. The settings on record: hepatocytes, read-out: CLH.
Data set [2] can be described thus: Fraction unbound in human plasma at 10 uM by equilibrium dialysis method. It counts as ADME, cell-free. On the technique in general: In equilibrium dialysis only unbound substance equilibrates across the membrane.
Data set [3] is described as follows: Aqueous solubility of the compound in phosphate buffer at pH 7.4 incubated for 24 hrs by LC/MS/MS method. It counts as physicochemical.
The target of another data set is Casein kinase II (Homo sapiens, UniProt P19784+P67870+P68400). Description: Inhibition of CK2 in human DLD1 HA-myr-AKT1 cells assessed as suppression of AKTser129 phosphorylation after 3 to 24 hrs by Western blot analysis. (In general: A western blot detects proteins with antibodies after separation by electrophoresis.)
Casein kinase II, sequence (P67870 whole entry): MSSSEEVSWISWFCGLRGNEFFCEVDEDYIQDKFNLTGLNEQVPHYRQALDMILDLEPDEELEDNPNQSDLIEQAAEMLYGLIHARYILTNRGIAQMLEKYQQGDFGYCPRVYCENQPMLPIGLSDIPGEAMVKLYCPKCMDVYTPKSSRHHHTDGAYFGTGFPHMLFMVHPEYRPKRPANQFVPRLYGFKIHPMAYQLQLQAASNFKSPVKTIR
Casein kinase II, sequence (P68400 whole entry): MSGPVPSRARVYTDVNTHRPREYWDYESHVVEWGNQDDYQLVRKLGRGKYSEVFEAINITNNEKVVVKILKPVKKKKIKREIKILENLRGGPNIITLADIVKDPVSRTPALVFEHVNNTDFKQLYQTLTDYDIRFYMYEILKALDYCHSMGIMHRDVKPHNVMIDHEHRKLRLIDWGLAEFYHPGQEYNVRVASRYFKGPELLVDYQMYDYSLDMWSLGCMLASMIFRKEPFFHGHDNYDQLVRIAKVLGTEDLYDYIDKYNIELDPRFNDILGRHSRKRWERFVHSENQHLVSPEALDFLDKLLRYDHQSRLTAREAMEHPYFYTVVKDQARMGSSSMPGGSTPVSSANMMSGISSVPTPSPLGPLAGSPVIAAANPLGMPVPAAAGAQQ
Casein kinase II, sequence (P19784 whole entry): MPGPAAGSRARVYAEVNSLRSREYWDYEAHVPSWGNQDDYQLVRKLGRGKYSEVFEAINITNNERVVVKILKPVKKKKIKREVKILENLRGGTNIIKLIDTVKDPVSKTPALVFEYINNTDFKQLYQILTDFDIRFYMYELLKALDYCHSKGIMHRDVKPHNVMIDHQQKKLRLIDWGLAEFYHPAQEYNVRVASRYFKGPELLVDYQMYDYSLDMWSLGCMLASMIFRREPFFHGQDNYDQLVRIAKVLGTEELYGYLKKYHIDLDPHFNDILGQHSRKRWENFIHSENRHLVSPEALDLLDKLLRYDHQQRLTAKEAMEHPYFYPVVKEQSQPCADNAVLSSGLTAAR
A short description of data set [4]: Intrinsic clearance in human liver microsomes. The data set is classed as ADME. The note with it: read-out: CLH. On the technique in general: Microsomes from liver hold many membrane-bound enzymes, among them those of drug oxidation.
Data set [5] can be described thus: Inhibition of CK2 in mouse L-Wnt3a cells assessed as suppression of Wnt3a-mediated L S/L Super TOPFlash reporter gene transcription after 24 hrs. The settings on record: L Wnt-3A.
Data set [6] concerns the target Casein kinase II subunit alpha (Homo sapiens, UniProt P68400). Description: Inhibition of full length N-terminal 6xHis-tagged recombinant human CK2alpha expressed in fall armyworm Sf21 cells using BODIPY-FL-RRRDDDSDDD-CONH2 as substrate after 90 mins by mobility shift assay.
Data set [7] is described as follows: Antiproliferative activity against human SW620 cells after 72 hrs by alamar blue assay. It counts as functional. The settings on record: SW-620, 72 h.
Data set [8] is described as follows: Antiproliferative activity against human […] cells after 72 hrs by alamar blue assay. The data set is classed as functional. The note with it: HCT-116, 72 h.
Data set [9] in a line: Antiproliferative activity against human DLD1 cells after 72 hrs by alamar blue assay. The data set is classed as functional. The settings on record: DLD-1, 72 h.

Casein kinase II subunit alpha, sequence (P68400 whole entry): as the sequence (P68400 whole entry) above

Regarding `CC(=O)Nc1cc(Nc2cc(NC3CC3)n3ncc(C#N)c3n2)ccc1N1CC[C@@H](N)C1`, in [1], the hepatocyte CLint amounted to 2.5 µL/min/1e6 cells. This compound showed a free fraction (fraction unbound) at 10 µM in [2] of 0.32. Moreover, the concentration in solution in [3] (solubility at 24 h) came to 812 µM (≈ 350 µg/mL). The figures for the IC50 (on Casein kinase II; in data set [5]; in data set [6]) were 70 nM, 960 nM and < 3 nM, respectively. For the same compound, in data set [4], the microsomal CLint was < 3 µL/min/mg.
As for `CC(=O)Nc1cc(Nc2cc(NC3CC3)n3ncc(C#N)c3n2)ccc1N1CC[C@H](N)C1`, the hepatocyte CLint in [1] is < 1 µL/min/1e6 cells. In [2], this compound registered a fraction unbound at 10 µM of 0.31. Besides, the solubility at 24 h in [3] was determined as 590 µM (≈ 255 µg/mL). Also, the IC50 on Casein kinase II is 70 nM; in data set [5], 690 nM; in [6], < 3 nM. Moreover, the microsomal CLint in [4] is < 3 µL/min/mg.
Regarding `CC(=O)Nc1cc(Nc2cc(NC3CC3)n3ncc(C#N)c3n2)ccc1N1CCN(C)CC1`, in data set [1], the hepatocyte CLint worked out at 7 µL/min/1e6 cells. This compound also yielded a free fraction (fraction unbound) at 10 µM in [2] of 0.18. The compound further displayed a solubility at 24 h in [3] of 570 µM (≈ 254 µg/mL). Also, in [4], the microsomal CLint is < 4 µL/min/mg. Further, the 50% inhibitory concentration (IC50) in data set [5] turned out to be 1100 nM.
The like results for `CC(=O)Nc1cc(Nc2cc(NC3CC3)n3ncc(C#N)c3n2)ccc1N1CC[C@H](N(C)C)C1` were, in that order, 2.5 µL/min/1e6 cells, 0.29, > 800 µM, 9 µL/min/mg and 380 nM.
For `CCN(CCN)c1ccc(Nc2cc(NC3CC3)n3ncc(C#N)c3n2)cc1NC(C)=O`, the hepatocyte CLint in data set [1] came out at 2 µL/min/1e6 cells. In addition, in data set [2], the fraction unbound at 10 µM was 0.3. In data set [3], the solubility at 24 h was > 1000 µM. In data set [4], the microsomal CLint amounted to 5 µL/min/mg. Also, the concentration for half-maximal inhibition (IC50) is 32 nM in [5] and < 3 nM in [6].
Regarding `CC(=O)Nc1cc(Nc2cc(NC3CC3)n3ncc(C#N)c3n2)ccc1N(C)CCN1CCOCC1`, the hepatocyte CLint in [1] was > 300 µL/min/1e6 cells. For the same compound, the free fraction (fraction unbound) at 10 µM in data set [2] stood at 0.18. In addition, the solubility at 24 h in data set [3] amounted to 275 µM (≈ 135 µg/mL). The half-inhibitory concentration (IC50) at Casein kinase II is 5 nM; in [5], 300 nM; in data set [6] it was < 3 nM. For the same compound, the microsomal CLint in data set [4] was 135 µL/min/mg.
Consider `CC(=O)Nc1cc(Nc2cc(NC3CC3)n3ncc(C#N)c3n2)ccc1N(C)C[C@@H](C)N`, for which, in data set [1], the hepatocyte CLint is < 1 µL/min/1e6 cells. Besides, the fraction unbound at 10 µM in [2] was 0.33. The concentration in solution in [3] (solubility at 24 h) was 825 µM (≈ 358 µg/mL). In addition, the concentration for half-maximal inhibition (IC50) is 4 nM on Casein kinase II, 400 nM in data set [5] and < 3 nM in data set [6]. Further, in [4], the microsomal CLint is < 3 µL/min/mg.
On to `CC(=O)Nc1cccc(Nc2cc(NC3CC3)n3ncc(C#N)c3n2)c1`, for which, in data set [1], the hepatocyte CLint was 26 µL/min/1e6 cells. In addition, the fraction unbound at 10 µM in data set [2] is 0.05. The compound further came in with a solubility at 24 h in data set [3] of 15 µM (≈ 5.21 µg/mL). Besides, the microsomal CLint in data set [4] was determined as 20 µL/min/mg. In addition, the GI50 in data set [7] and in data set [8] was 700 nM in each case. In addition, the half-maximal inhibitory concentration (IC50) in [5] amounted to 600 nM.
`CCN(CC)CCN(C)c1ccc(Nc2cc(NC3CC3)n3ncc(C#N)c3n2)cc1NC(C)=O`: in data set [1], the hepatocyte CLint turned out to be 27 µL/min/1e6 cells. The fraction unbound at 10 µM in data set [2] is 0.23. Also, the solubility at 24 h in data set [3] was > 1000 µM. The microsomal CLint in data set [4] was 44 µL/min/mg. Moreover, the IC50 in [5] is 390 nM.
The corresponding values for `CC(=O)Nc1cc(Nc2cc(NC3CC3)n3ncc(C#N)c3n2)ccc1N1CCC[C@H](N)C1` are < 1 µL/min/1e6 cells, 0.22, 704 µM (≈ 314 µg/mL), < 3 µL/min/mg and 180 nM.
On to `CC(=O)Nc1cc(Nc2cc(NC3CC3)n3ncc(C#N)c3n2)ccc1C`, for which, in [1], the hepatocyte CLint turned out to be 5 µL/min/1e6 cells. In data set [2], this compound registered a fraction unbound at 10 µM of 0.1. In data set [4], the microsomal CLint amounted to 10 µL/min/mg. Besides, the GI50 turned out to be 100 nM in data set [7], 170 nM in [9] and 80 nM in [8].
`CC(=O)Nc1cc(Nc2cc(NC3CC3)n3ncc(C#N)c3n2)ccc1N1CCC[C@@H](N)C1`: the hepatocyte CLint in data set [1] was < 1 µL/min/1e6 cells. Also, the free fraction (fraction unbound) at 10 µM in [2] came to 0.2. Besides, the solubility at 24 h in data set [3] was > 1000 µM. Besides, the microsomal CLint in [4] was < 3 µL/min/mg. For the same compound, the IC50 in [5] was determined as 650 nM.
For `CC(=O)Nc1cc(Nc2cc(NC3CC3)n3ncc(C#N)c3n2)ccc1N(C)C[C@H](C)N`, the hepatocyte CLint in data set [1] was < 1 µL/min/1e6 cells. The compound further gave an unbound share (fraction unbound) at 10 µM in data set [2] of 0.36. In [3], this compound registered a solubility at 24 h of 895 µM (≈ 388 µg/mL). In addition, the values for the 50% inhibitory concentration (IC50) (on Casein kinase II; in data set [5]; in data set [6]) were 4 nM, 670 nM and < 3 nM, respectively. Further, the microsomal CLint in data set [4] is < 3 µL/min/mg.
Regarding `CC(=O)Nc1cc(Nc2cc(NC3CC3)n3ncc(C#N)c3n2)ccc1N(C)CCO`, in [1], the hepatocyte CLint stood at 17 µL/min/1e6 cells. This compound displayed a fraction unbound at 10 µM in data set [2] of 0.07. In data set [3], this compound registered a solubility at 24 h of 2 µM (≈ 0.841 µg/mL). Besides, the microsomal CLint in data set [4] stood at 21 µL/min/mg. Moreover, the IC50 in data set [6] was < 3 nM.
For the compound `CC(=O)Nc1cc(Nc2cc(NC3CC3)n3ncc(C#N)c3n2)ccc1N1CCC[C@@H](N(C)C)C1`, in [1], the hepatocyte CLint was < 1 µL/min/1e6 cells. The free fraction (fraction unbound) at 10 µM in data set [2] amounted to 0.11. Moreover, the solubility at 24 h in data set [3] was > 900 µM. The microsomal CLint in data set [4] stood at 19 µL/min/mg. Also, in data set [5], the IC50 is 510 nM.
With `CC(=O)Nc1cc(Nc2cc(NC3CC3)n3ncc(C#N)c3n2)ccc1N(C)CCCN(C)C`, in data set [1], the hepatocyte CLint stood at 15 µL/min/1e6 cells. In [2], this compound showed a fraction unbound at 10 µM of 0.22. In data set [3], the solubility at 24 h is > 1000 µM. In addition, in data set [4], the microsomal CLint was < 4 µL/min/mg. Besides, the IC50 in data set [5] stood at 730 nM.
In data set [2], `CC(=O)Nc1cc(Nc2cc(NC3CC3)n3ncc(C#N)c3n2)ccc1N(C)CCN1CC(F)(F)C1` returned a fraction unbound at 10 µM of 0.02. Further, in data set [3], the solubility at 24 h turned out to be 241 µM (≈ 119 µg/mL). Besides, the 50% inhibitory concentration (IC50) in data set [5] was determined as 760 nM.
